Where a name gives a salt, the structure may show the parent alone.
Target: RIPK1 (recombinant GST-RIPK1 kinase domain, residues 1-327) (Homo sapiens (Human), UniProt Q13546)
Experiment: RIPK1-ADP-Glo Enzymatic Assay
Format: biochemical
Conditions: ADP-Glo; 25 nM GST-RIPK1, 300 μM ATP; assay lower limit ~25 nM; read-out: RIPK1 V0 Ec50
In short: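 Inhibition of ADP formation was measured after compound and enzyme (25 nM) were pre-incubated for 30 minutes at ambient temperature and the kinase reaction ran for 150 minutes at 300 μM ATP with dephosphorylated MBP substrate. EC50 values come from ten-point curves fitted non-linearly.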

RIPK1 (recombinant GST-RIPK1 kinase domain, residues 1-327), sequence (Q13546 1-327): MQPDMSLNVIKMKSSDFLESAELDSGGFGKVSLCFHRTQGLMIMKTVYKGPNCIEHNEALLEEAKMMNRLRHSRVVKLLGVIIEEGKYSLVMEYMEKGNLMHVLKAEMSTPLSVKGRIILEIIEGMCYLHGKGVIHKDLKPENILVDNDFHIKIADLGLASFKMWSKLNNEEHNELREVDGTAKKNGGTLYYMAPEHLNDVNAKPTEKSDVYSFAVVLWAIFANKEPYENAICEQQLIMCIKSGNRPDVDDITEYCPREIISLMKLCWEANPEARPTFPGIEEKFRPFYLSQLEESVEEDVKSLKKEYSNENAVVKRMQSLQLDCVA

EC50 | Compound
249 nM | CC(C)(C)OC(=O)c1ccc(N2CCC3(CC2)O[C@@H]2CC[C@@H](c4ccccc4)N2C3=O)nc1 [Example 4.198, tert-butyl 6-[(5′S,7a′R)-3′-oxo-5′-phenyltetrahydro-1H,3′H-spiro[piperidine-4,2′-pyrrolo[2,1-b] [1,3]oxazol]-1-yl]pyridine-3-carboxylate]
48 nM | O=C1N2[C@@H](CC[C@H]2c2ccccc2)OC12CCN(c1cc(CF)ncn1)CC2 [Example 4.203, (5′S,7a′R)-1-[6-(fluoromethyl)pyrimidin-4-yl]-5′-phenyltetrahydro-3′H-spiro[piperidine-4,2′-pyrrolo[2,1-b] [1,3]oxazol]-3′-one]
< 25 nM | O=C1N2[C@@H](CC[C@H]2c2cccc(F)c2)OC12CCN(c1ncnc3ccnn13)CC2 [Example 4.204, (5′S,7a′R)-5′-(3-fluorophenyl)-1-(pyrazolo[1,5-a] [1,3,5]triazin-4-yl)tetrahydro-3′H-spiro[piperidine-4,2′-pyrrolo[2,1-b] [1,3]oxazol]-3′-one]
40.2 nM | N#Cc1cccc(C(=O)N2CCC3(CC2)O[C@@H]2CC[C@@H](c4cc(F)cc(F)c4)N2C3=O)c1F [Example 6.33, 3-[(5′S,7a′R)-5′-(3,5-difluorophenyl)-3′-oxotetrahydro-1H,3′H-spiro[piperidine-4,2′-pyrrolo[2,1-b][1,3]oxazole]-1-carbonyl]-2-fluorobenzonitrile]
< 25 nM | Cc1nc(N2CCC3(CC2)O[C@@H]2CC[C@@H](c4ccccc4)N2C3=O)ccc1C#N [Example 4.74, 2-methyl-6-[(5′S,7a′R)-3′-oxo-5′-phenyltetrahydro-1H,3′H-spiro[piperidine-4,2′-pyrrolo[2,1-b] [1,3]oxazol]-1-yl]pyridine-3-carbonitrile]
< 25 nM | Cc1ccc([C@@H]2CC[C@H]3OC4(CCN(C(=O)c5ccccc5)CC4)C(=O)N32)c(F)c1 [Example 17.11, (5′S,7a′R)-1-benzoyl-5′-(2-fluoro-4-methylphenyl)tetrahydro-3′H-spiro[piperidine-4,2′-pyrrolo[2,1-b]oxazol]-3′-one]
< 25 nM | CC1CC2(CCN1c1ncnc3ccnn13)O[C@@H]1CC[C@@H](c3cc(F)cc(F)c3)N1C2=O (stereo partly drawn) [Example 4.213, (5′S,7a′R)-5′-(3,5-difluorophenyl)-2-methyl-1-(pyrazolo[1,5-a] [1,3,5]triazin-4-yl)tetrahydro-3′H-spiro[piperidine-4,2′-pyrrolo[2,1-b] [1,3]oxazol]-3′-one]
256 nM | CC(F)(F)c1ccnc(N2CCC3(CC2)O[C@@H]2CC[C@@H](c4ccccc4)N2C3=O)c1 [Example 4.262, (5′S,7a′R)-1-[4-(1,1-difluoroethyl)pyridin-2-yl]-5′-phenyltetrahydro-3′H-spiro[piperidine-4,2′-pyrrolo[2,1-b] [1,3]oxazol]-3′-one]
< 25 nM | O=C1N2[C@@H](CO[C@H]2c2cc(F)cc(F)c2)CC12CCN(c1ccnc3c(F)cnn13)CC2 (stereo in doubt) [Example 4.148, 3′-(3,5-difluorophenyl)-1-(3-fluoropyrazolo[1,5-a]pyrimidin-7-yl)dihydro-1′H,3′H,5′H-spiro[piperidine-4,6′-pyrrolo[1,2-c] [1,3]oxazol]-5′-one]
69 nM | O=C1N2[C@@H](CC[C@H]2c2cccc(F)c2)OC12CCN(c1cc(C(F)F)ncn1)CC2 [Example 4.52, (5′S,7a′R)-1-[6-(difluoromethyl)pyrimidin-4-yl]-5′-(3-fluorophenyl)tetrahydro-3′H-spiro[piperidine-4,2′-pyrrolo[2,1-b] [1,3]oxazol]-3′-one]
388 nM | O=C(c1cnc(C(F)(F)F)cn1)N1CCC2(CC1)O[C@@H]1CC[C@@H](c3cc(F)cc(F)c3)N1C2=O [Example 6.1, (5′S,7a′R)-5′-(3,5-Difluorophenyl)-1-(5-(trifluoromethyl)pyrazine-2-carbonyl)tetrahydro-3′H-spiro[piperidine-4,2′-pyrrolo[2,1-b]oxazol]-3′-one]
< 25 nM | O=C1N2[C@@H](CC[C@H]2c2ccccc2)OC12CCN(c1ccnc3c(F)cnn13)CC2F (single isomer, unassigned) [Example 4.92, (3[S or R],4[R or S], 5′S,7a′R)-3-fluoro-1-(3-fluoropyrazolo[1,5-a]pyrimidin-7-yl)-5′-phenyltetrahydro-3′H-spiro[piperidine-4,2′-pyrrolo[2,1-b]oxazol]-3′-one, TFA salt]
547 nM | O=C(c1ncnc2c1CCC2)N1CCC2(CC1)O[C@@H]1CC[C@@H](c3cc(F)cc(F)c3)N1C2=O [Example 6.15, (5′S,7a′R)-5′-(3,5-difluorophenyl)-1-(6,7-dihydro-5H-cyclopenta[d]pyrim-idine-4-carbonyl)-tetrahydro-3′H-spiro [piperidine-4,2′-pyrrolo-[2,1-b][1,3]oxazol]-3′-one]
30.2 nM | O=C(c1nc2ccccc2s1)N1CCC2(CC1)O[C@@H]1CC[C@@H](c3cc(F)cc(F)c3)N1C2=O [Example 6.28, (5′S,7a′R)-1-(1,3-benzothiazole-2-car-bonyl)-5′-(3,5-difluoro-phenyl)tetrahydro-3′H-spiro[piperidine-4,2′-pyrrolo[2,1-b] [1,3]oxazol]-3′-one]
< 25 nM | O=C1N2[C@@H](CC[C@H]2c2ccccc2)OC12CCN(c1ncc(Br)c3ncnn13)CC2 [Example 4.239, (5′S,7a′R)-1-(8-bromo [1,2,4]triazolo[1,5-c]pyrimidin-5-yl)-5′-phenyltetrahydro-3′H-spiro[piperidine-4,2′-pyrrolo[2,1-b] [1,3]oxazol]-3′-one]
39 nM | O=C(c1cc(F)ccc1F)N1CC2(C1)O[C@@H]1CC[C@@H](c3ccccc3F)N1C2=O [Example 1.18, (5′S,7a′R)-1-(2,5-difluorobenzoyl)-5′-(2-fluorophenyl)tetrahydro-3′H-spiro[azetidine-3,2′-pyrrolo[2,1-b]oxazol]-3′-one]
81.7 nM | O=C1N2[C@@H](CC[C@H]2c2ccccc2)OC12CCN(c1ccnc(C3CC3)n1)CC2 [Example 11.15, (5′S,7a′R)-1-(2-cyclopropylpyrimidin-4-yl)-5′-phenyltetrahydro-3′H-spiro[piperidine-4,2′-pyrrolo[2,1-b][1,3]oxazol]-3′-one]
< 25 nM | O=C1N2[C@@H](CC[C@H]2c2cc(F)cc(F)c2)OC12CCN(c1nccn3nccc13)CC2 [Example 13.12, (5′S,7a′R)-5′-(3,5-difluorophenyl)-1-(pyrazolo[1,5-a]pyrazin-4-yl)tetrahydro-3′H-spiro[piperidine-4,2′-pyrrolo[2,1-b]oxazol]-3′-one, TFA salt]
63.4 nM | Cc1cc2nccc(N3CCC4(CC3)O[C@@H]3CC[C@@H](c5cc(F)cc(F)c5)N3C4=O)n2n1 [Example 4.85, (5′S,7a′R)-5′-(3,5-difluorophenyl)-1-(2-methylpyrazolo[1,5-a]pyrimidin-7-yl)tetrahydro-3′H-spiro[piperidine-4,2′-pyrrolo[2,1-b]oxazol]-3′-one, TFA salt]
46.9 nM | Cc1ncc([C@@H]2CC[C@H]3OC4(CCN(c5ccc(C#N)c(C)n5)CC4)C(=O)N32)cc1F [Example 4.46, 6-[(5′S,7a′R)-5′-(5-fluoro-6-methylpyridin-3-yl)-3′-oxotetrahydro-1H,3′H-spiro[piperidine-4,2′-pyrrolo[2,1-b] [1,3]oxazol]-1-yl]-2-methylpyridine-3-carbonitrile]
< 25 nM | N#Cc1ccc(F)c(C(=O)N2CCC3(CC2)O[C@@H]2CC[C@@H](c4ccccc4)N2C3=O)c1 [Example 6.148]
172 nM | Cn1ccc(C(=O)N2CCC3(CC2)O[C@@H]2CC[C@@H](c4cc(F)cc(F)c4)N2C3=O)n1 [Example 5.39, (5′S,7a′R)-5′-(3,5-difluoro-phenyl)-1-(1-methyl-1H-pyrazole-3-carbonyl)tetra-hydro-3′H-spiro[piperi-dine-4,2′-pyrrolo[2,1-b]oxazol]-3′-one]
42.4 nM | O=C(c1ncn2ccccc12)N1CCC2(CC1)O[C@@H]1CC[C@@H](c3cc(F)cc(F)c3)N1C2=O [Example 5.74, (5′S,7a′R)-5′-(3,5-difluoro-phenyl)-1-(imidazo[1,5-a]-pyridine-1-carbonyl)tetra-hydro-3′H-spiro[piperi-dine-4,2′-pyrrolo[2,1-b]oxazol]-3′-one]
250 nM | N#Cc1ncc(N2CCC3(CC2)O[C@@H]2CC[C@@H](c4cc(F)cc(F)c4)N2C3=O)cn1 [Example 4.45, 5-[(5′S,7a′R)-5′-(3,5-difluorophenyl)-3′-oxotetrahydro-1H,3′H-spiro[piperidine-4,2′-pyrrolo[2,1-b] [1,3]oxazol]-1-yl]pyrimidine-2-carbonitrile]
117 nM | Cc1nc(N2CCC3(CC2)O[C@@H]2CC[C@@H](c4ccccc4)N2C3=O)ncc1-c1ncn(C)n1 [Example 21.4, (5′S,7a′R)-1-[4-methyl-5-(1-methyl-1H-1,2,4-triazol-3-yl)pyrimidin-2-yl]-5′-phenyltetrahydro-3′H-spiro[piperidine-4,2′-pyrrolo[2,1-b][1,3]oxazol]-3′-one]
143 nM | C#Cc1ccccc1C(=O)N1CCC2(CC1)O[C@@H]1CC[C@@H](c3cc(F)cc(F)c3)N1C2=O [Example 5.23, (5′S,7a′R)-5′-(3,5-difluoro-phenyl)-1-(2-ethynyl-benzoyl)tetrahydro-3′H-spiro[piperidine-4,2′-pyrrolo[2,1-b]oxazol]-3′-one]
< 25 nM | O=C(c1cc(Cl)ccc1F)N1CCC2(CC1)O[C@@H]1CC[C@@H](c3cc(F)cc(F)c3)N1C2=O [Example 5.61, (5′S,7a′R)-1-(5-chloro-2-fluorobenzoyl)-5′-(3,5-difluorophenyl)tetrahydro-3′H-spiro[piperidine-4,2′-pyrrolo[2,1-b]oxazol]-3′-one]

Compound | EC50
O=C(c1ccccc1)N1C2CCC1CC1(C2)O[C@@H]2CC[C@@H](c3cc(F)cc(F)c3)N2C1=O (stereo partly drawn) [Example 6.134, (5′S,7a′R)-8-(benzene-carbonyl)-5′-(3,5-difluorophenyl)tetra-hydro-3′H-spiro[8-azabicyclo[3.2.1]-octane-3,2′-pyrrolo-[2,1-b][1,3]oxazol]-3′-one] | 92.4 nM

Source: patent US12180226B2, “Spirotricycle RIPK1 inhibitors and methods of uses thereof” (Merck Sharp & Dohme LLC, priority 2021, dated 2024)
